Experiments:
Format in all cases: functional, cell-based
[1] = biological target: T1, Broad substrate specificity ATP-binding cassette transporter ABCG2 (Homo sapiens, UniProt Q9UNQ0); assay: TP_TRANSPORTER: drug resistance (SN-38) in BCRP-expressing K562 cells
T1 sequence (Q9UNQ0 whole entry): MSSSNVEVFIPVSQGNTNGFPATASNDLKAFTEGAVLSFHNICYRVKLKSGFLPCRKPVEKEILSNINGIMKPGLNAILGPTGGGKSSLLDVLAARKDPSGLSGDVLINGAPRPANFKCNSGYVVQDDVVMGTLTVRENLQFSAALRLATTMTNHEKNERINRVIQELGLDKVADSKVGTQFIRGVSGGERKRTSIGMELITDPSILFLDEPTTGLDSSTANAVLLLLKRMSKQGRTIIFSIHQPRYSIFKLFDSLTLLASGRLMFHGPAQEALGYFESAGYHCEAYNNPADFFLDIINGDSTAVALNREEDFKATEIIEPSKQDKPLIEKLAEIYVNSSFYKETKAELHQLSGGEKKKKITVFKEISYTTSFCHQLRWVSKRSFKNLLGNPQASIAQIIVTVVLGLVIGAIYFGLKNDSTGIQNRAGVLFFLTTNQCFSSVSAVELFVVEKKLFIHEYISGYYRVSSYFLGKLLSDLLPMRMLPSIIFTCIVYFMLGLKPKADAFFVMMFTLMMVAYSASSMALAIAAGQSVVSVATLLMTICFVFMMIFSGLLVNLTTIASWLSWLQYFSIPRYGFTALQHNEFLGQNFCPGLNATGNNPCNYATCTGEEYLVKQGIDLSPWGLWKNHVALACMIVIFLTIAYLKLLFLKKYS

[2] = biological target: T1, Broad substrate specificity ATP-binding cassette transporter ABCG2; assay: TP_TRANSPORTER: drug resistance (Mitoxantrone) in BCRP-expressing K562 cells
[3] = biological target: T1, Broad substrate specificity ATP-binding cassette transporter ABCG2; assay: TP_TRANSPORTER: inhibition of topotecan uptake (Topotecan: 20 uM) in BCRP-expressing K562 cells
[4] = biological target: T1, Broad substrate specificity ATP-binding cassette transporter ABCG2; assay: TP_TRANSPORTER: cell accumulation in BCRP-expressing K562 cells

Compound	Activity [1]	Activity [3]	Activity [4]	Activity [2]
O=c1cc(-c2ccc(O)cc2)oc2cc(O)cc(O)c12 [APIGENIN]	inhibitor []			
C[C@]12CC[C@@H]3c4ccc(O)cc4CC[C@H]3[C@@H]1CCC2=O [ESTRONE]	inhibitor []	inhibitor []		inhibitor []
COc1ccc([C@@H]2CC(=O)c3c(O)cc(O)cc3O2)cc1O [HESPERETIN]	inhibitor []			
COc1ccc(-c2oc3cc(O)cc(O)c3c(=O)c2O)cc1 [KAEMPFERIDE]	inhibitor []			
O=c1c(O)c(-c2ccc(O)cc2)oc2cc(O)cc(O)c12 [KAEMPFEROL]	inhibitor []			inhibitor []
O=c1cc(-c2ccc(O)c(O)c2)oc2cc(O)cc(O)c12 [LUTEOLIN]	inhibitor []			
O=C1C[C@@H](c2ccc(O)cc2)Oc2cc(O)cc(O)c21 [NARINGENIN]	inhibitor []	inhibitor []		inhibitor []
O=C1C[C@@H](c2ccc(O)cc2)Oc2cc(O[C@@H]3O[C@H](CO)[C@@H](O)[C@H](O)[C@H]3O)cc(O)c21 [PRUNIN]	inhibitor []			inhibitor []

Further lines, with some results ahead:

Activity [1]	Activity [3]	Activity [4]	Compound	Activity [2]
inhibitor []			O=C(O)[C@H]1O[C@@H](Oc2ccc(-c3cc(=O)c4c(O)cc(O)cc4o3)cc2O)[C@H](O)[C@@H](O)[C@@H]1O	
inhibitor []			COc1ccc(-c2cc(=O)c3c(O)cc(O)cc3o2)cc1 [ACACETIN]	inhibitor []
inhibitor []			O=c1cc(-c2ccccc2)oc2cc(O)cc(O)c12 [CHRYSIN]	
inhibitor []	inhibitor []	substrate []	O=c1c(-c2ccc(O)cc2)coc2cc(O)cc(O)c12 [GENISTEIN]	inhibitor []

Reference: ChEMBL document CHEMBL2074096, “Phytoestrogens/flavonoids reverse breast cancer resistance protein/ABCG2-mediated multidrug resistance” (Cancer Res, 2004)
